Laboratory results reported in patent publication US20110319362A1, “STAT3 LIGANDS AND THERAPEUTIC USES THEREOF” (priority 2008, published 2011).
Where two headings read alike, the source gives them in different places.

Experiments:
STAT3 protein = biological target: T1, STAT3 protein (Homo sapiens, UniProt P40763); assay: In vitro competitive STAT3 binding assay (fluorescence polarization)
T1 construct: human STAT3 protein (residues 122-722) fused to His-tag; His-tag
Source text: To quantitatively determine the binding affinities of STAT3 inhibitors to STAT3 protein, a sensitive and quantitative in vitro binding assay was developed based upon fluorescence polarization (FP) method. For this FP assay, 5-carboxyfluorescein (5-Fam) was coupled to a phosphopeptide (phospho-Tyr-Leu-Pro-Gln-Thr-Val-amide) with two beta-alanine and one glycine residues as the spacer between 5-Fam and the phosphopeptide to obtain 5-Fam-beta-Ala-beta-Ala-Gly-phospho-Tyr-Leu-Pro-Gln-Thr-Val-amide as the fluorescently tagged tracer, which was named as STT2 peptide. […] The recombinant human STAT3 protein (residues 122-722) fused to His-tag was stable and soluble.
Competitive binding experiments were carried out using 150 nM of STAT3 protein and 5 nM of STT2 peptide with different concentrations of a tested STAT3 inhibitor. For each experiment, two controls were included. One control contained STAT3 protein and STT2 peptide, and the second control contained STT2 peptide only. The polarization values were measured after 2-3 hours of incubation using an ULTRA READER (Tecan U.S. Inc., Research Triangle Park, N.C.). IC50 values, the inhibitor concentration at which 50% of the fluorescently tagged STT2 peptide is displaced by STAT3 inhibitors, was determined from a plot using nonlinear least-squares analysis using GRAPHPAD PRISM software (GraphPad Software, Inc., San Diego, Calif.). […]

[1] = test system: MDA-MB-231 cancer cell line; assay: Cell growth assay (WST-8); assay type: cell-based; details: Homo sapiens, MDA-MB-231, 96 h; WST-8, 4 days; read-out: Inhibition of cell growth IC50, MDA-MB-231 cancer cell line
Protocol: (§1) The effect of STAT3 compounds on cell growth was evaluated by a WST-8 [2-(2-methoxy-4-nitrophenyl)-3-(4-nitrophenyl)-5-(2,4-disulfophenyl)-2H-tetrazolium, monosodium salt assay (Dojindo Molecular Technologies, Inc). Cells (3000-4000 cells in each well) were cultured in 96-well tissue culture plates in medium (200 μL) containing various concentrations of STAT3 compounds for 4 days. At the end of incubation, WST-8 dye (20 μL) was added to each well and incubated for an additional 1-3 h, and then the absorbance was measured in a microplate reader (Molecular Devices) at 450 nm. Cell growth inhibition was evaluated as the ratio of the absorbance of the sample to that of the control.

[2] = test system: MDA-MB-468 cancer cell line; assay: Cell growth assay (WST-8); assay type: cell-based; details: Homo sapiens, MDA-MB-468, 96 h; WST-8, 4 days; read-out: Inhibition of cell growth IC50, MDA-MB-468 cancer cell line
Protocol: as §1

[3] = FP competitive binding, fluorescently tagged STT2 peptide tracer, read-out: Binding affinities to STAT3 IC50

T1 sequence (P40763 122-722): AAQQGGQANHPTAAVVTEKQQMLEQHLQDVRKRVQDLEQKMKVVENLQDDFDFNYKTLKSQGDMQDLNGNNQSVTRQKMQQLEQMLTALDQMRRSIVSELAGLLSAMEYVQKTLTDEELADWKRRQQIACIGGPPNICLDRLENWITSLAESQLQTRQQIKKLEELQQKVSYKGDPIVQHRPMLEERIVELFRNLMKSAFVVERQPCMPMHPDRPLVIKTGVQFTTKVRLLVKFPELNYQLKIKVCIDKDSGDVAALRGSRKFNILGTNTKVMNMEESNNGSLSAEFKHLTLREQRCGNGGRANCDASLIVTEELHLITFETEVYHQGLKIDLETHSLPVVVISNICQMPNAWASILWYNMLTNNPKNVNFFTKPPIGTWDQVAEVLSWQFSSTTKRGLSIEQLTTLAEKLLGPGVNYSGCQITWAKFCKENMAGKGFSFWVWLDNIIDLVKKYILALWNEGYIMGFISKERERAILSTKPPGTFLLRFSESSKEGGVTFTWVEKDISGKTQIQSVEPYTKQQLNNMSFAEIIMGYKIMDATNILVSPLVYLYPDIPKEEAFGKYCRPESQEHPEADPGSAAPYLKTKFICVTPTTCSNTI

SMILES | IC50 (STAT3 protein; [3]) | IC50 [1] | IC50 [2] | IC50 (STAT3 protein)
N=C(N)NCCC[C@H](NC(=O)[C@@H]1CC[C@@H]2CCCC[C@H](NC(=O)[C@@H](N)Cc3ccc(OP(=O)(O)O)cc3)C(=O)N21)C(=O)NCc1ccccc1 [Example 12] | > 5 µM | < 50 µM | > 100 µM | 
CP(=O)(O)Cc1ccc(CCC(=O)N[C@H]2CCCCC3CC[C@@H](C(=O)N[C@@H](CCC(N)=O)C(=O)NCc4ccccc4)N3C2=O)cc1 (stereo partly drawn) | > 100 µM | > 100 µM | > 100 µM | 
CN[C@@H](Cc1ccc(OC(C(=O)O)C(=O)O)cc1)C(=O)N[C@H]1CCCCC2CC[C@@H](C(=O)N[C@@H](Cc3c[nH]cn3)C(=O)NCc3ccccc3)N2C1=O (stereo partly drawn) | > 10 µM | > 100 µM | > 100 µM | 
CCCCCCCCCCCCCCCCNC(=O)[C@H](CCC(N)=O)NC(=O)[C@@H]1CC[C@@H]2CCCC[C@H](NC(=O)[C@H](Cc3ccc(OP(=O)(O)O)cc3)NC(=O)CCN3CCN(C)CC3)C(=O)N21 |  | > 20 µM | > 20 µM | < 5 µM
CCCCCCCCCCCCCCCCN1CCN(CCC(=O)N[C@@H](Cc2ccc(OP(=O)(O)O)cc2)C(=O)N[C@H]2CCCCC3CC[C@@H](C(=O)NCCCC(O)CO)N3C2=O)CC1 (stereo partly drawn) | < 10 µM | < 20 µM | < 20 µM | 
CCOC(=O)C(Oc1ccc(C[C@@H](C(=O)N[C@H]2CCCCC3CC[C@@H](C(=O)N[C@@H](CCCNC(C)=O)C(=O)NCc4ccccc4)N3C2=O)N(C)C)cc1)C(=O)OCC (stereo partly drawn) | > 10 µM | > 100 µM | > 100 µM | 
NC(=O)CC[C@H](NC(=O)[C@@H]1CC[C@@H]2CCCC[C@H](NC(=O)CCc3ccc(CCC(=O)O)cc3)C(=O)N21)C(=O)NCc1ccccc1 [Example 5] | > 100 µM | > 50 µM | > 100 µM | 
CCCCCCCCCCCCCCCCN1CCN(CCC(=O)N[C@@H](Cc2ccc(OP(=O)(O)O)cc2)C(=O)N[C@H]2CCCCC3CC[C@@H](C(=O)NCCCCNC)N3C2=O)CC1 (stereo partly drawn) | < 10 µM | < 50 µM | < 50 µM | 
CCCCCCCCCCCCCCCCN1CCN(CCC(=O)N[C@@H](Cc2ccc(OP(=O)(O)O)cc2)C(=O)N[C@H]2CCCCC3CC[C@@H](C(=O)NCCc4nnc[nH]4)N3C2=O)CC1 (stereo partly drawn) | < 5 µM | < 20 µM | < 20 µM | 
O=C(CCc1ccccc1)N[C@@H](Cc1ccc(OP(=O)(O)O)cc1)C(=O)N[C@H]1CCCCC2CC[C@@H](C(=O)N[C@@H](CCC(=O)NC(c3ccccc3)(c3ccccc3)c3ccccc3)C(=O)NCc3ccccc3)N2C1=O (stereo partly drawn) | < 20 µM | > 100 µM | > 50 µM | 
CC[C@H](NC(=O)[C@@H]1CCC2CCCC[C@H](NC(=O)[C@H](Cc3ccc(OP(=O)(O)O)cc3)NC(=O)OCc3ccccc3)C(=O)N21)C(=O)NCc1ccccc1 (stereo partly drawn) |  | > 30 µM | > 30 µM | > 10 µM
CCCCCCCCCCCCCCCCNC(=O)[C@H](CCC(N)=O)NC(=O)[C@@H]1CCC2CCCC[C@H](NC(=O)[C@@H](N)Cc3ccc(OP(=O)(O)O)cc3)C(=O)N21 (stereo partly drawn) | > 5 µM | < 50 µM | < 50 µM | 
CN[C@@H](Cc1ccc(OC(C(=O)O)C(=O)O)cc1)C(=O)N[C@H]1CCCCC2CC[C@@H](C(=O)N[C@@H](CCCN)C(=O)NCc3ccccc3)N2C1=O (stereo partly drawn) | > 10 µM | > 100 µM | > 100 µM | 
CC(=O)N1CCC2CC[C@@H](C(=O)N[C@@H](CCC(N)=O)C(=O)NCc3ccccc3)N2C(=O)[C@@H](NC(=O)[C@@H](N)Cc2ccc(OP(=O)(O)O)cc2)C1 (stereo partly drawn) | < 5 µM | > 50 µM | > 100 µM | 
CC(=O)N[C@@H](Cc1ccc(OCP(=O)(O)O)cc1)C(=O)NC1CCCC[C@H]2CC[C@@H](C(=O)N[C@@H](Cc3c[nH]cn3)C(=O)NCc3ccccc3)N2C1=O (stereo in doubt) [Example 32] |  | > 100 µM | > 100 µM | < 30 µM
CN[C@@H](Cc1ccc(OP(=O)(O)O)cc1)C(=O)N[C@H]1CCCCC2CC[C@@H](C(=O)N[C@@H](Cc3c[nH]cn3)C(=O)NCc3ccccc3)N2C1=O (stereo partly drawn) | < 30 µM | > 50 µM | > 100 µM | 
NCCC[C@H](NC(=O)[C@@H]1CC[C@@H]2CCCC[C@H](NC(=O)[C@H](Cc3ccc(OP(=O)(O)O)cc3)NC(=O)OCc3ccccc3)C(=O)N21)C(=O)NCc1ccccc1 [Example 20] |  | > 50 µM | > 100 µM | < 10 µM
NC(=O)CC[C@H](NC(=O)[C@@H]1CCC2CCCC[C@H](NC(=O)c3cc4cc(OP(=O)(O)O)ccc4[nH]3)C(=O)N21)C(=O)NCc1ccccc1 (stereo partly drawn) [Example 57] |  | > 100 µM | > 100 µM | < 1 µM
CN[C@@H](Cc1ccc(OP(=O)(O)O)cc1)C(=O)N[C@H]1CCCCC2CC[C@@H](C(=O)N[C@@H](CCC(N)=O)C(=O)NCc3ccccc3)N2C1=O (stereo in doubt) [Example 40] | < 1 µM | > 30 µM | > 100 µM | 
CC(=O)N[C@@H](Cc1ccc(OCC(=O)O)cc1)C(=O)N[C@H]1CCCC[C@H]2CC[C@@H](C(=O)N[C@@H](CCC(N)=O)C(=O)NCc3ccccc3)N2C1=O [Example 7] | > 50 µM | > 100 µM | > 100 µM | 
CCCCCCCCCCCCCCCCN1CCN(CCC(=O)N[C@@H](Cc2ccc(OP(=O)(O)O)cc2)C(=O)N[C@H]2CCCCC3CC[C@@H](C(=O)N[C@H](CO)Cc4c[nH]cn4)N3C2=O)CC1 (stereo partly drawn) | < 5 µM | < 20 µM | < 20 µM | 
CCCCCCCCNC(=O)[C@H](CCC(N)=O)NC(=O)[C@@H]1CCC2CCCC[C@H](NC(=O)[C@H](Cc3ccc(OP(=O)(O)O)cc3)NC)C(=O)N21 (stereo partly drawn) | < 5 µM | > 100 µM | > 100 µM | 
CCCCCCCCCCCCCCCCN1CCN(CCC(=O)N[C@@H](Cc2ccc(CP(=O)(O)O)cc2)C(=O)N[C@H]2CCCCC3CC[C@@H](C(=O)N[C@@H](CCC(N)=O)C(=O)NCc4ccccc4)N3C2=O)CC1 (stereo partly drawn) |  | > 100 µM | > 100 µM | > 100 µM
C[C@H](NC(=O)[C@@H]1CC[C@@H]2CCCC[C@H](NC(=O)[C@@H](N)Cc3ccc(OC(C(=O)O)C(=O)O)cc3)C(=O)N21)C(=O)NCc1ccccc1 [Example 10] | > 100 µM | > 50 µM | > 100 µM | 
CCCCCCCCCCCCCCCCCCCCNC(=O)[C@H](CCC(N)=O)NC(=O)[C@@H]1CCC2CCCC[C@H](NC(=O)[C@H](Cc3ccc(OP(=O)(O)O)cc3)NC)C(=O)N21 (stereo partly drawn) | < 5 µM | < 30 µM | < 30 µM | 
O=C(CC[C@H](NC(=O)[C@@H]1CCC2CCCC[C@H](NC(=O)[C@H](Cc3ccc(OP(=O)(O)O)cc3)NC(=O)OCc3ccccc3)C(=O)N21)C(=O)NCc1ccccc1)NC(c1ccccc1)(c1ccccc1)c1ccccc1 (stereo partly drawn) |  | < 50 µM | < 50 µM | < 20 µM
CCCCCCCCCCCCCCCCNC(=O)[C@H](CCC(N)=O)NC(=O)[C@@H]1CC[C@@H]2CCCC[C@H](NC(=O)[C@H](Cc3ccc(OP(=O)(O)O)cc3)NC(=O)CCN3CCOCC3)C(=O)N21 |  | < 40 µM | < 40 µM | < 5 µM
CCOC(=O)C(Oc1ccc(C[C@@H](C(=O)N[C@H]2CCCCC3CC[C@@H](C(=O)N[C@@H](Cc4c[nH]cn4)C(=O)NCc4ccccc4)N3C2=O)N(C)C)cc1)C(=O)OCC (stereo partly drawn) | > 10 µM | > 100 µM | > 100 µM | 
NC(=O)CC[C@H](NC(=O)[C@@H]1CCC2CCCC[C@H](NC(=O)c3cc4cc(CP(=O)(O)O)ccc4[nH]3)C(=O)N21)C(=O)NCc1ccccc1 (stereo partly drawn) [Example 58] |  | > 100 µM | > 100 µM | < 10 µM
